Measured values: patent US9138421B2, “Platinum compounds for treating cell proliferative diseases, preparation method and use thereof” (priority 2011, dated 2015)
pIC50: −log10 of the molar value.

Key:
normal mice = experiment: Acute toxic effect of platinum complex on normal mice (LD50); format: in vivo, Kunming mice; settings: single intravenous administration in 5% glucose, 14 days observation, Bliss method
Description: Test 1: Acute Toxic Effect of Platinum Complex on Normal Mice
Embodiment platinum compound was dissolved with 5% glucose solution. […] Mortality and toxicity were observed after administration.

lung cancer H292 = experiment: MTT cytotoxicity, lung cancer H292; format: cell-based; settings: n = 6
Description: (§1) The toxic action of Embodiment platinum containing compounds was observed on tumor cells by MTT colorimetric method. Several kinds of tumor cells in exponential growth phase were prepared into single cell suspension, inoculated on 96 pore plat at the density of 4×10^4/hole, cultivated for 24 hours to enable to adhere to wall with 1640 culture medium containing 10% fetal calf serum (complete medium) at 37° C.; the final culture volume was 100 μl. Cell morphology was observed after culture for 24 hours.

testis cell ST = experiment: MTT cytotoxicity, testis cell ST; format: cell-based; settings: n = 6
Description: as §1

gastric cancer MGC803 = experiment: MTT cytotoxicity, gastric cancer MGC803; format: cell-based; settings: n = 6
Description: as §1

esophagus cancer ECA109 = experiment: MTT cytotoxicity, esophagus cancer ECA109; format: cell-based; settings: n = 6
Description: as §1

[1] = tested on: lung cancer Lewis cell line; experiment: In vivo antitumor activity, lung cancer Lewis in nude mice; settings: 15 mg/kg, every 2 days, 4 times, end 30 days after inoculation
Solubility in water = settings: in water
[2] = tested on: Pulmonary epithelial cell BEAS-2B; experiment: MTT cytotoxicity, pulmonary epithelial cell BEAS-2B; format: cell-based; settings: n = 6
Description: as §1

lung cancer Lewis = experiment: MTT cytotoxicity, lung cancer Lewis; format: cell-based; settings: n = 6
Description: as §1

colon cancer SW480 = experiment: MTT cytotoxicity, colon cancer SW480; format: cell-based; settings: n = 6
Description: as §1

[3] = tested on: colon cancer SW480 cell line; experiment: In vivo antitumor activity, colon cancer SW480 in nude mice (1); settings: SW480, 4 mg/kg, every other day, 4 times, tumor weighed after 10 days
Description: The calculation formula of tumor inhabitation rate is: […]

[4] = tested on: colon cancer SW480 cell line; experiment: In vivo antitumor activity, colon cancer SW480 in nude mice (2), dose series; settings: 3 days, tumor weighed 24 hours after drug discontinuance

| Compound | LD50 value (normal mice) [mmol/kg] | pIC50 (lung cancer H292) | pIC50 (testis cell ST) | pIC50 (gastric cancer MGC803) | pIC50 (esophagus cancer ECA109) | tumor inhibition rate (%) [1] [%] | solubility (Solubility in water) [mg/mL] | pIC50 [2] | pIC50 (lung cancer Lewis) | pIC50 (colon cancer SW480) | tumor inhibition rate (%) (x ±SD) [3] | tumor inhibition rate (%) (x ±SD) ([4]; SW480, 3 mg/kg) | tumor inhibition rate (%) (x ±SD) ([4]; SW480, 5 mg/kg) | tumor inhibition rate (%) (x ±SD) ([4]; SW480, 10 mg/kg) | tumor inhibition rate (%) (x ±SD) ([4]; SW480, 15 mg/kg) |
| --- | --- | --- | --- | --- | --- | --- | --- | --- | --- | --- | --- | --- | --- | --- | --- |
| [2-(2-diethylamine ethyl)-malonato].[cis-1,3-(2,2-(4-oxacyclohexyl))-propyldiamine]platinum (II) phosphate [compound 28] | 0.767 | 4.00 | 3.86 | 3.79 | 3.59 | 73.3 ± 17.92 | – | – | – | – | – | – | – | – | – |
| CCN(CC)CCC1C(=O)[O][Pt]2([NH]C3CCC(CC3)[NH]2)[O]C1=O.O=P(O)(O)O (stereo not drawn) [compound 27, [2-(2-diethylamine ethyl)-malonato].[cis-1,4-cyclohexyldiamine] platinum (II) phosphate] | 0.729 | 3.80 | 3.44 | 3.34 | 3.46 | 71.3 ± 10.54 | 145 | – | – | – | – | – | – | – | – |
| 2-(2-diethylamine ethyl)-malonic.cis-1,4-(trans-2,3-cyclobutyl)-butanediamine platinum (II) phosphate [compound 26] | – | 3.87 | 3.51 | 3.63 | 3.79 | 72.4 ± 16.78 | – | – | – | – | – | – | – | – | – |
| CCCN(CCC)CCC1C(=O)[O][Pt]([NH2])([NH2])[O]C1=O.O=P(O)(O)O [compound 7, 2-(2-di-n-propylamineethyl)-malonic-cis-diamino platinum (II) phosphate] | – | 3.91 | – | – | – | – | – | 4.12 | 3.89 | 4.29 | 28.5 ± 7.65 | – | – | – | – |
| [2-(2-dimethylamine ethyl)-malonato].[cis-trans-1,2-diaminomethylcyclobutane]platinum (II) phosphate [compound 25] | 0.520 | 4.28 | 3.94 | 3.47 | 3.71 | 80.1 ± 9.65 | – | – | – | – | – | – | – | – | – |
| [2-(3-di-n-propylamine propyl)-malonato].[cis-diamine] platinum (II) mesylate [compound 8] | 0.806 | 3.70 | – | – | – | – | – | 4.31 | 4.24 | 4.70 | 29.7 ± 8.81 | 40.4 ± 5.02 | 73.6 ± 9.18 | 74.4 ± 12.25 | 82.8 ± 10.07 |
